Test in data set [1]: not given
The source holds these as a separate data set.

Data set [2] in a line: method code SF-AS, from DOI: 10.1111/j.2042-7158.1989.tb06480.x, PMID: 2570831. The settings on record: pH 7.4.
The nature of data set [3]: method code SF-AS, from DOI: 10.1248/cpb.26.2824.
The nature of data set [4]: method code SF-TN, from DOI: 10.2116/analsci.13.897. The settings on record: pH 2.0.
A short description of data set [5]: method code SF, from Dai, J-Y.; Han, S.; Wang, L. (2000). Prediction of partition properties of substituted benzaldehydes using different structural parameters. Zhongguo Huanjing Kexue (China Environmental Science), ….
Test in data set [6]: not given
This is another data set of the same source.

Test in data set [7]: not given
The source holds these as a separate data set.

The nature of data set [8]: method code SF-AS, from DOI: 10.1248/cpb.17.2558.
Data set [9] in a line: method code SF-AS, from DOI: 10.1248/cpb.40.925.
Test in data set [10]: not given
This is another data set of the same source.

Test in data set [11]: not given
The source holds these as a separate data set.

Data set [12] can be described thus: method code SF-AS, from DOI: 10.1002/etc.5620181211.
Data set [13] is described as follows: method code SF-GLC, from DOI: 10.1016/s0003-2670(00)84505-5.
Data set [14] in a line: method code SF-HPLC, from DOI: 10.1016/0378-5173(84)90193-5. Conditions: pH 4.0.
Test in data set [15]: not given
This is another data set of the same source.

Data set [16] in a line: method code SF-AS, from DOI: 10.1016/j.bmc.2008.07.057, PMID: 18706818. The settings on record: pH 7.4.
Data set [17] in a line: method code SF-HPLC, from DOI: 10.1016/j.microc.2003.08.005.
Data set [18] in a line: method code SF-AS, from DOI: 10.1248/cpb.35.377.
Test in data set [19]: not given
This is another data set of the same source.

Data set [20] is described as follows: method code SF-AS, from DOI: 10.1016/s0021-9673(01)89384-5.
The nature of data set [21]: method code SF, from Huang, Q.; Wang, L.; Han, S.; Wang, G.; Gao, H. (1993). Quantitative relation between molecular structures and the hydrophobic parameters of halogenated arenes. Chemical Journal of Chinese ….
Test in data set [22]: not given
This is another data set of the same source.

Test in data set [23]: not given
This is another data set of the same source.

Data set [24] can be described thus: method code SF-GLC, from DOI: 10.1002/etc.5620080910.
Test in data set [25]: not given
This is another data set of the same source.

A short description of data set [26]: method code SF, from DOI: 10.1016/0165-1218(78)90089-7, PMID: 362190.
Data set [27] can be described thus: method code SF-AS, from DOI: 10.1016/0731-7085(96)01773-6, PMID: 8877846.
The nature of data set [28]: method code SF, from DOI: 10.2307/3575246, PMID: 7367588.
A short description of data set [29]: from KURIHARA, Norio.; Fujita, Toshio. (1983). Composition of Partition Coefficients of Polychlorinated Hydrocarbons (Commemoration Issue Dedicated to Professor Yuzo Inouye on the Occasion of his ….
Test in data set [30]: not given
The source holds these as a separate data set.

The nature of data set [31]: method code SF-AS, from DOI: 10.1016/0378-5173(93)90388-v.
The conditions of data set [32]: pH 7.3.
Data set [33] in a line: method code SF, from DOI: 10.1016/s0928-0987(00)00099-3, PMID: 10915965. The settings on record: pH 5.0.
Data set [34] is described as follows: method code SF-GLC, from DOI: 10.1021/je00020a050.
Test in data set [35]: not given
This is another data set of the same source.

Data set [36] can be described thus: method code SF, from DOI: 10.1016/0006-2952(91)90449-f, PMID: 1930261. Conditions: pH 2.0.
Data set [37] is described as follows: method code SF-HPLC, from DOI: 10.1002/etc.5620110812.
Test in data set [38]: not given
This is another data set of the same source.

On to `O=C(O)c1ccccn1`, for which the logP was -1.

In the case of `O=c1[nH]cnc2nc[nH]c12`, the logP in data set [1] is -0.96. As for `Cn1cnc2c(N)ncnc21`, the logD in data set [2] is -0.03. `Cc1ccccc1C(=O)O`: the log partition coefficient (logP) in data set [3] came to 2.18. In the case of `CCCC=CC(=O)O`, the logD in data set [4] amounted to 1.69. `O=C(O)c1ccccc1[N+](=O)[O-]` returned a logP in data set [3] of 1.46. In the case of `O=Cc1ccc(Cl)c(Cl)c1`, the logP in data set [5] is 2.53.

On to `COc1c(Cl)cc(Cl)c(Cl)c1Cl`, for which the logP in [6] was determined as 4.75. `Cc1ccc([N+](=O)[O-])cc1` showed a logP in data set [7] of 2.4. As to `CNc1ccc(S(N)(=O)=O)cc1`, the logD in data set [8] (pH 5.5) stood at 0.08.

`Cn1cccc1` yielded a logP in data set [9] of 1.15. `C1CCCC1` had a logP in data set [10] of 2.8. `Nc1c([N+](=O)[O-])ccc2ncccc12` registered a logP in data set [11] of 1.61.

Take `Nc1cccnc1Cl`: the logP in data set [12] was determined as 0.04. `Oc1c(Cl)cc(Cl)c(Cl)c1Cl` returned a logP in data set [13] of 4.3. Regarding `CC(=O)n1c(=O)[nH]cc(F)c1=O`, the logD in [14] was -0.34. In data set [15], `Oc1cc(Cl)ccc1Cl` came in with a logP of 3.06. `CC1(C(N)=O)CCC=[N+]1[O-]` (stereo not drawn): the logD in data set [16] is -1.8. Consider `COc1cc(Cl)c(Cl)c(Cl)c1O`, for which the logP in data set [13] came out at 3.72. The compound `Cc1ccc2[nH]nnc2c1` had a logP in data set [17] of 1.89. `OCc1cc(Cl)cc(Cl)c1` returned a logP in data set [18] of 2.9.

As to `Nc1cccc(Cl)c1Cl`, the logP in data set [19] worked out at 2.51.

In turn, `Cc1ccc(C)o1` came in with a logP in data set [20] of 2.24. In the case of `COc1cc(NCc2ccc3nc(N)nc(N)c3c2C)cc(OC)c1OC`, in data set [1] (pH 13.0), the logD came out at 2.55. On to `Clc1ccc(Br)cc1`, for which the logP in data set [21] came to 3.83. Turning to `ClC1C(Cl)C(Cl)C(Cl)C(Cl)C1Cl` (stereo not drawn), the logP in data set [22] was found to be 3.67. `c1ccc(Oc2ccccc2)cc1`: the logP in data set [22] stood at 3.87.

As for `Cc1cccc(C)n1`, in data set [23], the logP was determined as 1.63. The compound `O=[N+]([O-])c1cc(Cl)c(Cl)c(Cl)c1Cl` came in with a logP in [24] of 3.93. In data set [21], `Brc1ccccc1Br` returned a lipophilicity (logP) of 4.07. For `Oc1cccc(F)c1`, in [15], the logP was 1.82. As for `Oc1ccc2ccccc2c1`, the logP in [18] turned out to be 2.75. In data set [6], `COc1c(Cl)c(Cl)cc(Cl)c1Cl` had a logP of 4.68. The compound `CCC(C)CC` returned a logP in data set [25] of 2.8. In data set [26], `O=[N+]([O-])c1nccn1CC(O)CCl` (stereo not drawn) registered a logP of 0.15. Turning to `C#CCN(C)C(C)Cc1ccc(F)cc1` (stereo not drawn), the logP in data set [27] was 3.

In [28], `O=C(Cn1ccnc1[N+](=O)[O-])NCC(O)CO` (stereo not drawn) registered a logP of -1.85.

In turn, `Nc1ncnc2[nH]cnc12` showed a logD in data set [2] of -0.05. As to `CCC1(C(N)=O)CCC=[N+]1[O-]` (stereo not drawn), the logD in data set [16] is -1.25. Turning to `Cl[C@@H]1CCCC[C@@H]1Cl`, in data set [29], the logP was 3.18. In data set [30], `C=CCCCCCC` showed a logP of 4.72. Take `CCN1CCCC1=O`: the logP in data set [31] is -0.04. Take `On1ccccc1=S`: the logP turned out to be 0.4. In [9], `COC(=O)c1ccoc1` gave a logP of 1.28. `O=c1cc(CO)occ1O` returned a logD in [32] of -0.64.

In turn, `COP(=O)(OC)C(C)(OC(C)=O)P(=O)(OC)OC` showed a logD in data set [33] of -1.05. The compound `CCCCCCCCC(C)=O` registered a logP in [10] of 3.78.

As to `Nc1ccc([N+](=O)[O-])cn1`, the logP in data set [11] worked out at 0.65. In [29], `ClC1=CC(Cl)C(Cl)C(Cl)C1` (stereo not drawn) displayed a logP of 3.52.

In the case of `c1ccc(-c2nccnn2)cc1`, the logP in [20] was 1.71. For the compound `COc1c(Cl)cc(Cl)cc1Cl`, in [34], the logP was determined as 4.02. On to `Cn1cccc(O)c1=O`, for which the logD in data set [32] was -0.4.

For `O=[N+]([O-])c1ccccc1`, the logP in data set [7] is 1.86. In the case of `Clc1ccc2[nH]nnc2c1`, in [17], the logP is 2.17. For the compound `C1CCCCCCC1`, in [25], the logP is 3.28. On to `Nc1cc(Cl)ccc1Cl`, for which the logP in data set [19] is 2.62. In the case of `COP(=O)(OC)C(C)(O)P(=O)(OC)OC`, the logD in data set [33] is -1.39. In data set [27], `O=C1O[C@H]([C@@H](O)CO)C(O)=C1O` showed a logP of -1.84. Turning to `CCCC(CO)N1C=NC2C(N)=NC=NC21` (stereo not drawn), in data set [35], the logP worked out at 0.66.

Regarding `CN1C(=O)NC(=O)C(=O)C1=O`, the logD in data set [36] was -1.04. Consider `N#CSCSc1nc2ccccc2s1`, for which, in data set [37], the logP worked out at 3.12. Regarding `CS(=O)CCn1ccnc1[N+](=O)[O-]` (stereo not drawn), the logP in [28] was -1.22. With `CCCCC(C)=O`, in data set [23], the logP is 1.39. In data set [31], `CC1CCC(=O)N1C` (stereo not drawn) returned a logP of -0.07. `COc1cc(Cl)c(Cl)cc1OC` returned a logP in data set [34] of 3.11. In data set [30], `CCCCCBr` yielded a logP of 3.32. As to `COc1ccccc1`, the logP in data set [38] was determined as 2.15.

As for `CCCC(=O)n1c(=O)[nH]cc(F)c1=O`, in data set [14], the log distribution coefficient (logD) was 0.67. In data set [37], `Sc1nc2ccccc2s1` returned a logP of 2.41. Take `CN1C(=O)C(=O)C(=O)N(C)C1=O`: the logD in data set [36] is -0.57. In turn, `N#Cc1ccc([N+](=O)[O-])n1CCO` came in with a logP in data set [26] of 0.6. Consider `Cc1ccc(C)c(C=O)c1`, for which the logP in data set [5] is 1.91. As for `C(=C\c1ccccn1)/c1ccccc1`, the logP in data set [12] came to 1.96. Turning to `NS(=O)(=O)c1ccc(Cl)c(Cl)c1`, in data set [8] (pH 2.0), the logD turned out to be 1.44.

In turn, `O=[N+]([O-])c1c(Cl)cc(Cl)cc1Cl` displayed a logP in [24] of 3.69.

Compound `O=C(O)C1CC=CCC1` (stereo not drawn) returned a logD in data set [4] of 1.69.

Compound `Oc1ccc(Cl)cc1` returned a logP in data set [38] of 2.43. The compound `CCCCOCC` had a logP in data set [35] of 2.03.

A word on the logP: it is the decadic logarithm of the partition coefficient of the neutral form, usually between octanol and water. The term logD denotes the decadic logarithm of the distribution of all forms, ionised or not, between an organic phase and buffer at a given pH. Low readings indicate lower lipophilicity, high ones higher lipophilicity.

The values above are taken from the SangsterLogP compilation.
